{"source": "patent US10278931B2", "about": "“Composition for treatment of inflammatory bowel disease and atopic dermatitis” (INNOPHARMASCREEN INC., priority 2015, dated 2019)", "key": {"[1]": {"system": "IL-6, IL-22, IL-33", "assay": "Western blotting of cytokines in DNCB skin tissue lysates", "format": "in vivo, balb/c mice", "details": "changed slightly", "procedure": "E. Western blotting analysis: Western blotting analysis was performed to verify differences in protein expression in the above antibody array experiment. Proteins from the tissue lysates were separated on SDS-PAGE. The electrophoresed proteins were then transferred onto the PVDF membranes. After washing with PBST solution, the PVDF membranes were blocked with 5% skim milk powder for 1 hour and then reacted with a primary antibody overnight at 4° C. The membranes were washed with PBST solution and reacted with a secondary antibody (anti-IgG) conjugated with horseradish peroxidase (HRP) for 1 hour at room temperature and examined with a photoresist film."}, "[2]": {"system": "balb/c mice with DNCB-induced atopic dermatitis", "assay": "DNCB-induced atopic dermatitis model", "format": "in vivo", "details": "DNCB-applied balb/c mice, concentration of 0.011 μM (so in the source)"}}, "data": [{"smiles": "Cl.N=C(N)NC(=N)Nc1ccc(Cl)cc1", "note": "[IPS-07001]", "values": [{"measurement": "IL-6 protein expression (western blotting)", "setting": "[1]", "value": "decreased"}, {"measurement": "IL-22 protein expression (western blotting)", "setting": "[1]", "value": "decreased"}, {"measurement": "IL-33 protein expression (western blotting)", "setting": "[1]", "value": "decreased"}, {"measurement": "IL-6 level in dorsal skin", "setting": "[2]", "value": "significantly regulated"}]}]}
